Laboratory results: PubChem BioAssay (NCI)
Where “and” joins values, the source holds several entries; their conditions need not be identical. Identical values can stand only once.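 Results reflect a 48-hour exposure of cells in 96-well plates to compound at five concentrations. The concentration for 50% growth inhibition is given as GI50. TGI denotes the concentration required for complete inhibition of growth.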

Assays:
Experiment in all cases: DTP human tumour cell line panel, 48 h
MDA-MB-231 breast = system: MDA-MB-231 breast
HOP-62 NSCLC = system: HOP-62 NSCLC
786-0 renal = system: 786-0 renal
A498 renal = system: A498 renal
LOX IMVI melanoma = system: LOX IMVI melanoma
HCT-116 colon = system: HCT-116 colon
SF-295 CNS = system: SF-295 CNS
OVCAR-4 ovarian = system: OVCAR-4 ovarian
HS 578T breast = system: HS 578T breast
OVCAR-8 ovarian = system: OVCAR-8 ovarian

SMILES | GI50 (MDA-MB-231 breast) | TGI (MDA-MB-231 breast) | GI50 (HOP-62 NSCLC) | TGI (HOP-62 NSCLC) | GI50 (786-0 renal) | TGI (786-0 renal) | GI50 (A498 renal) | TGI (A498 renal) | GI50 (LOX IMVI melanoma) | TGI (LOX IMVI melanoma) | GI50 (HCT-116 colon) | TGI (HCT-116 colon) | GI50 (SF-295 CNS) | TGI (SF-295 CNS) | GI50 (OVCAR-4 ovarian) | TGI (OVCAR-4 ovarian) | GI50 (HS 578T breast) | TGI (HS 578T breast) | GI50 (OVCAR-8 ovarian) | TGI (OVCAR-8 ovarian)
COc1nc(C)cc2c(=O)n(-c3ccccc3)n(CC(O)CN3CCN(c4ccc(Cl)cc4)CC3)c(=O)c12 (stereo not given) | > 50 µM | > 50 µM | 37.9 µM | > 50 µM | 25.8 µM | > 50 µM | > 50 µM | > 50 µM | > 50 µM | > 50 µM | > 50 µM | > 50 µM | 36.4 µM | > 50 µM | 36.8 µM | > 50 µM | 18.8 µM | > 50 µM |  | 
CCN(CC)CCOc1c(OC)c(Br)cc2c(C)c(C(=O)OC)oc12 | 1.22 µM | 3.46 µM |  |  | 1.71 µM | 6.04 µM | 7.39 µM | 14.6 µM | 0.749 µM | 1.45 µM | 1.17 µM | 3.15 µM | 1.18 µM | 2.99 µM |  |  | 1.44 µM | 3.82 µM | 2.13 µM | 7.88 µM
CCOC(=O)c1c2c(n(Cc3ccccc3)c1C)-c1nc(Cc3ccccc3)[nH]c1C(=O)C2=O | 1.37 µM | 2.67 µM | 1.75 µM | 3.45 µM | 1.77 µM | 3.29 µM | 1.74 µM | 3.17 µM | 1.78 µM | 3.17 µM | 1.49 µM | 2.9 µM | 1.92 µM | 4.14 µM | 1.03 µM | 2.76 µM | 2.26 µM | 5.34 µM | 2.03 µM | 4.99 µM
CC(=O)c1cccc(-c2cccc(-c3ccn(CCN4CCOCC4)n3)c2)c1 | > 20 µM | > 20 µM | > 20 µM | > 20 µM | > 20 µM | > 20 µM | 14.5 µM | > 20 µM | > 20 µM | > 20 µM | > 20 µM | > 20 µM |  |  | > 20 µM | > 20 µM | > 20 µM | > 20 µM | > 20 µM | > 20 µM
CC(=O)c1cc(-c2ccccc2N)n(-c2ccc3c(c2)OCO3)c1C | 0.134 µM | > 77 µM | 0.435 µM | > 100 µM | 0.388 µM | > 100 µM | 0.195 µM | 0.808 µM | 0.297 µM | > 100 µM | 0.257 µM | 15.9 µM | 0.295 µM | 45.7 µM | 0.924 µM | > 100 µM | 0.303 µM | > 85.4 µM | 0.156 µM | > 100 µM
COC(=O)[C@H]1[C@H]2C[C@@H]3c4[nH]c5cc(OC)ccc5c4CCN3C[C@H]2C[C@@H](OC(=O)/C=C/c2cc(OC)c(OC)c(OC)c2)[C@@H]1OC | 10.6 µM | 41.8 µM | 5.99 µM | 25.5 µM | 9.86 µM | 26.3 µM | 4.23 µM | 18.6 µM | 3.31 µM | 13.1 µM | 3.18 µM | 9.57 µM | 5.54 µM | 24.9 µM | 3.39 µM | 11.2 µM | 5.77 µM | 39.5 µM | 4.74 µM | 50.4 µM
Cc1nn(CNc2ccccc2C(F)(F)F)c(=S)n1/N=C/c1ccc(F)cc1 | 25.9 µM | > 100 µM | > 100 µM | > 100 µM | > 100 µM | > 100 µM | > 100 µM | > 100 µM | > 100 µM | > 100 µM | 91.2 µM | > 100 µM | > 100 µM | > 100 µM | 23.3 µM | 70.6 µM | 72.3 µM | > 100 µM | > 100 µM | > 100 µM
COc1cc2c(c(OC)c1OC)-c1ccc(O)c(=O)cc1[C@@H](NC(C)=O)CC2 | 4.7 µM | > 100 µM and 41.7 µM | 10.7 µM | > 100 µM and 65.9 µM | 12.3 µM | 62 µM and 92.1 µM | 15 µM | > 100 µM and 44.1 µM | 5.89 µM | > 100 µM and 60.1 µM | 4.23 µM | > 100 µM | 5.45 µM | > 100 µM and 97.3 µM | 3.64 µM | > 100 µM and 66.1 µM | 14.3 µM | > 100 µM and 71.4 µM | 3.77 µM | > 100 µM and 35.7 µM
COc1cc2c3c(c1OC)C1(C=CC(=O)C=C1)CC3NCC2 (stereo not given) |  | > 100 µM |  | > 100 µM |  | > 100 µM |  | > 100 µM |  | > 100 µM |  | > 100 µM |  | > 100 µM |  | > 100 µM |  | > 100 µM |  | > 100 µM
C[C@]12CC[C@H]3[C@@H](CC[C@]4(O)C[C@@H](O)CC[C@]34CO)[C@@]1(O)CC[C@@H]2C1=CC(=O)OC1 |  | > 51.3 µM |  | 3.89 µM |  | 11.7 µM |  | 5.1 µM |  | 8.19 µM |  | 4.31 µM |  | 5.27 µM |  |  |  | > 100 µM |  | 3.82 µM
COC(=O)c1ccc(CN2C(=O)C(Cl)=C(Nc3ccc(OC)c(Cl)c3)C2=O)cc1 | 7.14 µM | 26.3 µM | 22.7 µM | > 50 µM | 36.2 µM | > 50 µM | > 50 µM | > 50 µM | 5.66 µM | 26.7 µM | 13.3 µM | > 50 µM | 20.4 µM | > 50 µM |  |  | 43 µM | > 50 µM | 23.8 µM | > 50 µM
CCCCNC(=O)Oc1ccc(/C(=C(/CC)Cc2ccccc2)c2ccc(OCCN3CCCCCC3)cc2)cc1 | 19.2 µM | 36.6 µM | 70.8 µM | > 100 µM | 16.2 µM | 30 µM |  |  | 17 µM | 30.7 µM | 15.6 µM | 29 µM | 18.3 µM | 38.4 µM | 19.2 µM | 51.3 µM | 19.7 µM | 44.1 µM | 19.1 µM | 36.6 µM
CCCCCCNC(=O)n1cc(F)c(=O)[nH]c1=O | 10.2 µM | 24.5 µM | 7.09 µM | 21.5 µM | 10.6 µM | 23.4 µM | 18 µM | > 100 µM | 2.06 µM | 16.3 µM | 1.99 µM | 15.3 µM |  |  | 14 µM | 39.1 µM | 52 µM | > 100 µM | 3.29 µM | 24.1 µM
